Here are results for five compounds from PMC7845594, “Novel Immune Modulators Enhance Caenorhabditis elegans Resistance to Multiple Pathogens” (mSphere, 2021).

SMILES strings stand for the structures. “And” between values parts separate entries of the source, which are not always exact repeats. Equal values may be shown once. “Also recorded” adds a separate entry of the source.

One data set has as its system PMK-1/p38 MAPK pathway. Description: irg-5p::GFP reporter. It is filed as in vivo, Caenorhabditis elegans. The settings on record: 25, 50, or 100 μM, 24 h, no pathogen. The text has this:
To test activation of these pathways, worms carrying GFP-based reporters for the SKN-1/Nrf, PMK-1/p38 MAPK, and DAF-16/FOXO pathways (gst-4p::GFP, irg-5p::GFP, and DAF-16::GFP, respectively) were exposed to each compound in S Basal medium in the absence of the pathogen.
FIG 4 A subset of LK molecules activates reporters for the SKN-1/Nrf2 or PMK-1/p38 MAPK pathways. […] Also present are DMSO and ethanol negative controls for LK compounds and juglone, respectively. The fluorescence intensity was normalized to that of DMSO. (B) Worms carrying an irg-5p::GFP reporter for PMK-1/p38 MAPK activity were incubated at 25, 50, or 100 μM in 1% DMSO. Positive and negative controls consisted of 100 μM RPW-24 in 1% DMSO and 1% DMSO alone. Fluorescence was measured at 24 h. […] P values were calculated using Student’s t test. […]
Worms were washed three times prior to incubation with compounds or DMSO control and diluted in S Basal medium supplemented with E. coli OP50 (OD600 = 0.08) as a food source. The fluorescence fold increase for gst-4p::GPF was taken as the fluorescence of each well and was normalized to the well’s fluorescence at 0 h. irg-5p::GFP, hsp-16.1p::GFP, rpt-6p::GFP, and hsp-4::GFP fluorescence was quantified as the fluorescence/worm area. […] For quantification of nuclear localization of GFP fusion reporters, worms were scored as either localization positive or localization negative. […]

For data set [1], the system named is glp-4(bn2) C. elegans exposed to P. aeruginosa PA14. The data set is described as follows: P. aeruginosa liquid killing assay (effective rescue concentration). In kind it is in vivo, Caenorhabditis elegans. The settings on record: glp-4(bn2) worms, ± 95% confidence interval. As for the experimental part:
For the first round of characterization, 69 novel small molecules previously selected on the basis of their ability to improve C. elegans survival during exposure to P. aeruginosa in liquid ([14]) were tested for the ability to interfere with bacterial growth. MICs were determined for each compound by growing P. aeruginosa strain PA14 in static culture in 384-well plates with serial 2-fold dilutions of compounds. No worms were used in these assays. Next, effective rescue concentrations (EC; defined as the minimum concentration that results in statistically significant survival, compared to dimethyl sulfoxide [DMSO]) ([15], [18]) were determined for each compound using the standard P. aeruginosa liquid killing assay. Sterile glp-4(bn2) worms were used in all liquid-based assays to limit artifacts (i.e., unlaid eggs will hatch and cause matricide).
FIG 1 LK molecules rescue C. elegans from P. aeruginosa in liquid killing. […] (B) Lipinski values for the five LK molecules, showing their molecular mass, predicted octanol-water partition coefficient, polar surface area, number of hydrogen donors and acceptors, and the number of rotatable bonds. (C) Minimum effective concentrations (EC) and 95% confidence interval, MICs (defined as the minimum concentration to prevent grown in LB media), and their ratio (MIC/EC). The minimum effective concentration was calculated from the lowest concentration that retained statistically significant rescue of glp-4(bn2) C. elegans, a temperature-sensitive sterile strain, from exposure to P. aeruginosa PA14. […] Compounds were added in serial 2-fold dilutions from 50 µM to 12.5 μM. *, P < 0.05; **, P < 0.01; ***, P < 0.001. P values were calculated using Student’s t test. At least six wells containing 20 worms each per condition per replicate were used for determination of liquid killing. EC values were calculated based on at least three biological replicates. Error bars represent the standard error of the mean.
Liquid killing of C. elegans was performed as previously described with some changes ([91]). In brief, an overnight culture of LB medium was inoculated with a single colony of Pseudomonas aeruginosa strain PA14. Then, 400 µl of culture was spread onto a 10-cm slow-kill agar plate ([91]) and grown for 24 h at 37°C, followed by 24 h at 25°C. Bacteria were scraped from the plate, resuspended in S Basal medium, and added to 384-well plates with small molecules dissolved in DMSO. Solution in wells contained a final concentration of 40% SK media, 59% S Basal medium, 1% DMSO, and small molecules. For all liquid-based killing assays, solvent control wells contained 1% DMSO. MgSO4 and CaCl2 (300 µM) and cholesterol (1.6 µg/ml) were added to aid in production of virulence factors. Worms were sorted into 384-well plates using a COPAS FlowSort (Union Biometrica, Holliston, MA), incubated at 25°C until the DMSO control was roughly 35 to 55% dead, washed four times using an EL406 microplate washer (BioTek, VT), and stained with 50 μl of Sytox Orange at 1 µM to fluorescently stain dead worms. Wells were imaged in bright-field and RFP channels using the BioTek Cytation5, followed by image analysis using the CellProfiler software package to calculate fraction of dead worms in each well. EC values were defined as the minimum concentration that provided statistically significant rescue. At least three biological replicates were performed.

Another data set has as its system C. elegans transcriptome. The data set is described as follows: Gene ontology enrichment (DAVID) of up-/downregulated genes. Details: species or system Caenorhabditis elegans. The settings on record: upregulated genes, 100 µM, 8 h. As for the experimental part: To gain additional insight into the effect of LK molecules on C. elegans, young-adult, wild-type worms were treated with each drug at 100 µM for 8 h in the absence of pathogen. RNA was collected, and transcriptome profiling was performed.
Supplementary file : TABLE S4 Enriched gene ontology categories. […] Redundant gene ontology categories were removed. Download Table S4, XLSX file, 0.02 MB.
Transcriptome profiling was performed on ∼6,000 wild-type, young adult worms incubated with either LK molecules or DMSO for 8 h. RNA isolation was performed using TRIzol extraction, followed by cleanup using RNeasy columns according to the manufacturer’s protocol. Each condition was analyzed in triplicate. Microarray data have been deposited in the GEO database, accession number GSE137516. […] Clustering and generation of the heat map was performed using Cluster 3.0 ([98]) and Treeview ([99]), respectively. Fold change of genes were normalized to average fold change of that gene over all clustered conditions. Genes and conditions were clustered using Euclidean distance and average linkages. […] Microarray data for non-LK molecules were collected from GEO omnibus. WormEXP was used as a secondary method for confirming statistical significance of potential pathways stimulated by each of the LK molecules ([100]). Gene ontologies were generated using DAVID ([101], [102]).

For the next data set, the system named is RWPE-1 cells. Description: MTT cell viability assay. As to conditions: RWPE-1, 10, 50, or 100 µM, 24 h; cell death greater than 30% = toxicity.

Method for RWPE-1 cells: (B) 1.5 × 10^4 RWPE-1 immortalized prostate cells were seeded into each well of a 96-well plate. […] The viability was normalized to a DMSO solvent control. Six wells were used per condition, and an average of three biological replicates is shown.
We also tested compound toxicity in RWPE-1 cells, a well-established, noncancerous, immortalized prostate epithelial cell line available in the lab. Cells were seeded in 96-well plates and allowed to attach before media containing various concentrations of one of the compounds (or DMSO as a control) were added. […] Cell death greater than 30% was considered evidence of toxicity (Fig. 3B).
Then, 100 µl of DMSO was added, and the absorbance at 590 nm measured. MTT assays were performed in triplicate.

`CN(C)/N=N/c1ccc(-c2cn(Cc3ccccc3)cn2)cc1` [LK38]: the “irg-5p::GFP fluorescence (PMK-1/p38 MAPK activation)” value in the data set with PMK-1/p38 MAPK pathway was “modest increase”. For the same compound, in data set [1], the “EC (minimum effective concentration giving statistically significant rescue)” value turned out to be 6.7 ± 2.0 µM. Besides, the “Fold Enrichment, GO term Cytochrome P450” value with C. elegans transcriptome was found to be 12.2.
`CNC(=O)Oc1c(Br)cc2sc(=O)oc2c1Br` [LK34]: the “Toxicity in mammalian cells (MTT viability)” value in the data set on RWPE-1 cells was “some toxicity”. Besides, in data set [1], the “EC (minimum effective concentration giving statistically significant rescue)” value is 9.3 ± 4.4 µM and 9.3 µM.
On to `CCN(CC)/N=N/c1ccc(C(=O)O)cc1` [LK35], for which the “EC (minimum effective concentration giving statistically significant rescue)” value in data set [1] was determined as 17.3 ± 6.1 µM.
Turning to `O=c1cc(CNc2ccc(Br)cc2)nc2sccn12` [LK56], in the data set on PMK-1/p38 MAPK pathway, the “irg-5p::GFP fluorescence (PMK-1/p38 MAPK activation)” value was “modest increase”. The “EC (minimum effective concentration giving statistically significant rescue)” value in data set [1] is 7.3 ± 1.9 µM and 7.3 µM. The “Fold Enrichment, GO term Cytochrome P450” value in the data set on C. elegans transcriptome stood at 12.9.
`COC(=O)/C=C/C(=O)Nc1ccccc1` [LK32]: the “Toxicity in mammalian cells (MTT viability)” value in the data set on RWPE-1 cells is listed as “poorly tolerated; also recorded: substantial toxicity”. Besides, in data set [1], the “EC (minimum effective concentration giving statistically significant rescue)” value was 32 ± 0.0 µM and 32 µM.
